In ChEMBL document CHEMBL1140619:
Square brackets hold non-standard residues; d marks the D form. Peptide text beside a SMILES is read from it. * marks the point of attachment. Tyr(Nα,Nα-allyl2) = C=CCN(CC=C)[C@@H](Cc1ccc(O)cc1)C(=O)*; Aib = CC(C)(N)C(=O)O

Experiments:
[1] = target: Delta-type opioid receptor (Rattus norvegicus) (UniProt P33533); test: Displacement of [3H]naltrindole from rat delta opioid receptor expressed in C6 cells; format: cell-based
[2] = target: Delta-type opioid receptor (Rattus norvegicus) (UniProt P33533); test: Agonist activity at rat delta opioid receptor expressed in C6 cells assessed as stimulation of [35S]GTP-gamma-S binding relative to BW373U86; format: functional, cell-based

Sequence of Delta-type opioid receptor (Rattus norvegicus) (P33533 whole entry): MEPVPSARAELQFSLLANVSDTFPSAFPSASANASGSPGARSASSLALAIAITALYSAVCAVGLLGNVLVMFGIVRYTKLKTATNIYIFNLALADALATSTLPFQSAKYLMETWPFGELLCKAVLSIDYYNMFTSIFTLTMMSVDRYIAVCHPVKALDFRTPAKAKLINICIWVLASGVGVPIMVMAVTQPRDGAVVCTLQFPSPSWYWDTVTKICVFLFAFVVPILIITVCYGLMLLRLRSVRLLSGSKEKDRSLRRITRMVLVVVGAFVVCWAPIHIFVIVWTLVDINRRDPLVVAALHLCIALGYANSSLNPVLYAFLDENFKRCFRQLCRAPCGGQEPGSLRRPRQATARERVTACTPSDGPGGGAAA

| SMILES | Activity [1] [nM] | Activity [2] |
| --- | --- | --- |
| Oc1ccc2c3c1O[C@H]1c4oc5ccccc5c4C[C@@]4(O)[C@@H](C2)N(CC2CC2)CC[C@]314 | 0.037 |  |
| CN1CC[C@]23c4c5ccc(O)c4O[C@H]2C(=O)C2(Cc4ccccc4C2)C[C@@]3(O)[C@H]1C5 | 8.4 | 0.18 |
| C=CCN1C[C@H](C)N([C@H](c2ccc(C(=O)N(CC)CC)cc2)c2cccc(O)c2)C[C@H]1C | 0.45 |  |
| CC(C)C[C@H](NC(=O)[C@H](Cc1ccccc1)NC(=O)CNC(=O)[C@@H](CO)NC(=O)[C@@H](N)Cc1ccc(O)cc1)C(=O)N[C@H](C(=O)O)[C@@H](C)O | 93 | 0.9 |
| Oc1ccc2c3c1O[C@H]1c4[nH]c5ccccc5c4C[C@@]4(O)[C@@H](C2)N(CC2CC2)CC[C@]314 |  | 0 |
| O=C1/C(=C/c2ccccc2)C[C@@]2(O)[C@H]3Cc4ccc(O)c5c4[C@@]2(CCN3CC2CC2)[C@H]1O5 | 0.079 |  |
| C=CCN1C[C@H](C)N([C@H](c2ccc(C(=O)N(CC)CC)cc2)c2cccc(OC)c2)C[C@H]1C | 60 | 1.02 |
| CC(C)[C@H](NC(=O)[C@H](CC(=O)O)NC(=O)[C@H](Cc1ccccc1)NC(=O)[C@@H](C)NC(=O)[C@@H](N)Cc1ccc(O)cc1)C(=O)N[C@H](C(=O)NCC(N)=O)C(C)C | 81 | 0.59 |
| CC1(C)SSC(C)(C)C(NC(=O)[C@@H](N)Cc2ccc(O)cc2)C(=O)NCC(=O)N[C@@H](Cc2ccc(Cl)cc2)C(=O)NC1C(=O)O (stereo in doubt) | 135 | 0.8 |
| C=CCN(CC=C)[C@@H](Cc1ccc(O)cc1)C(=O)NC(C)(C)C(=O)NC(C)(C)C(=O)N[C@@H](Cc1ccccc1)C(=O)N[C@@H](CC(C)C)C(=O)O ({Tyr(Nα,Nα-allyl2)}-[Aib][Aib]FL-OH) | 37 | 0 |
| CN1CC[C@]23c4c5ccc(O)c4O[C@H]2c2[nH]c4ccccc4c2C[C@@]3(O)[C@H]1C5 | 6.5 | 0.12 |
